Test results taken from ChEMBL document CHEMBL1909046, “DrugMatrix in vitro pharmacology data”.

Tests used:
[1] = biological target: Sodium-dependent noradrenaline transporter (Homo sapiens, UniProt P23975); assay: DRUGMATRIX: Norepinephrine Transporter radioligand binding (ligand: [125I] RTI-55); assay type: cell membranes, MDCK, Membrane; settings: Not Active = under 50% inhibition at 10 µM
Cytochrome P450 2C9 = Cytochrome P450 2C9 (Homo sapiens, UniProt P11712); settings: bti-tn-5b1-4; further: in other assays of this panel Not Active means under 50% inhibition at 10 µM
Chain of Cytochrome P450 2C9 (P11712 whole entry): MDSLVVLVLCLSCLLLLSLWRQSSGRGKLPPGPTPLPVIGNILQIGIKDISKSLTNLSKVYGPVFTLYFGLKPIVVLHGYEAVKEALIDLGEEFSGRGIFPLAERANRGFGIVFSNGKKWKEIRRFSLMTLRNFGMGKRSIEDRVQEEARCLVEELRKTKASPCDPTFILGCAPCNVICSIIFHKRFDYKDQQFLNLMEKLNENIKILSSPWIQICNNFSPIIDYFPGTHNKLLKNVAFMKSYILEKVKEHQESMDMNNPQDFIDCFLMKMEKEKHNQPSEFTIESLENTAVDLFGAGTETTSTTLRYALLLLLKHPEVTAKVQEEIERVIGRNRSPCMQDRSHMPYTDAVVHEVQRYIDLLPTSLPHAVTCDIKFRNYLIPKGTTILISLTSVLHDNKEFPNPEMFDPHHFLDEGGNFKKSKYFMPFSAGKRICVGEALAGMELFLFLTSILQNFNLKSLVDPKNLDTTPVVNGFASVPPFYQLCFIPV

Adenosine receptor A3 = biological target: T1, Adenosine receptor A3 (Homo sapiens, UniProt P0DMS8); assay type: cell membranes, CHO-K1, Membrane;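 further: radioligand binding assay with AB-MECA serving as the labeled ligand; in other assays of this panel Not Active means under 50% inhibition at 10 µM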
T1 sequence (P0DMS8 whole entry): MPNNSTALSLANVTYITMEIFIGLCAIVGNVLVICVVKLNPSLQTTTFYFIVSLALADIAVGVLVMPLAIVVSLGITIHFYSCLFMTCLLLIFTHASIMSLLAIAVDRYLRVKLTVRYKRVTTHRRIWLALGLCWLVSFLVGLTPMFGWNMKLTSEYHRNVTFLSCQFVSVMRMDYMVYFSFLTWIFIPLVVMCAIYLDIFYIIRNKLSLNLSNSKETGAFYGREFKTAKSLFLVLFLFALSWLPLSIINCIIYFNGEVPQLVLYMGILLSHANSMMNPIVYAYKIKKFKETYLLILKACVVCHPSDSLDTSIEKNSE

D(4) dopamine receptor = biological target: T2, D(4) dopamine receptor (Homo sapiens, UniProt P21917); assay: DRUGMATRIX: Dopamine D4.2 radioligand binding (ligand: [3H] Spiperone); assay type: cell membranes, CHO-K1, Membrane; settings: cho-k1; Not Active = under 50% inhibition at 10 µM
T2 sequence (P21917 whole entry): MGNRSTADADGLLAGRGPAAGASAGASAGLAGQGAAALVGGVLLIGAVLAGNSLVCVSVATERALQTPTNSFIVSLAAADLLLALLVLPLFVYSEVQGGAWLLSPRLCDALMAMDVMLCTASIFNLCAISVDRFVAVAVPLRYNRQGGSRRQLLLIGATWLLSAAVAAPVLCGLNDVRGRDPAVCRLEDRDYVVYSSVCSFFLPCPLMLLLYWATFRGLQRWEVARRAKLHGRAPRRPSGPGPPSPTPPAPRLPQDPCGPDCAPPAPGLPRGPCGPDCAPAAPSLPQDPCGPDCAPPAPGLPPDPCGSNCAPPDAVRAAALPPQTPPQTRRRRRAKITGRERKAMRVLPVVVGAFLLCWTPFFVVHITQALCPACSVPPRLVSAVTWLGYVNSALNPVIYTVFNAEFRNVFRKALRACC

[2] = biological target: T3, Nitric oxide synthase, inducible (Mus musculus, UniProt P29477); parameters: species or system Escherichia coli;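 further: inhibition of iNOS enzyme activity measured with L-arginine as substrate; in other assays of this panel Not Active means under 50% inhibition at 10 µM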
T3 sequence (P29477 whole entry): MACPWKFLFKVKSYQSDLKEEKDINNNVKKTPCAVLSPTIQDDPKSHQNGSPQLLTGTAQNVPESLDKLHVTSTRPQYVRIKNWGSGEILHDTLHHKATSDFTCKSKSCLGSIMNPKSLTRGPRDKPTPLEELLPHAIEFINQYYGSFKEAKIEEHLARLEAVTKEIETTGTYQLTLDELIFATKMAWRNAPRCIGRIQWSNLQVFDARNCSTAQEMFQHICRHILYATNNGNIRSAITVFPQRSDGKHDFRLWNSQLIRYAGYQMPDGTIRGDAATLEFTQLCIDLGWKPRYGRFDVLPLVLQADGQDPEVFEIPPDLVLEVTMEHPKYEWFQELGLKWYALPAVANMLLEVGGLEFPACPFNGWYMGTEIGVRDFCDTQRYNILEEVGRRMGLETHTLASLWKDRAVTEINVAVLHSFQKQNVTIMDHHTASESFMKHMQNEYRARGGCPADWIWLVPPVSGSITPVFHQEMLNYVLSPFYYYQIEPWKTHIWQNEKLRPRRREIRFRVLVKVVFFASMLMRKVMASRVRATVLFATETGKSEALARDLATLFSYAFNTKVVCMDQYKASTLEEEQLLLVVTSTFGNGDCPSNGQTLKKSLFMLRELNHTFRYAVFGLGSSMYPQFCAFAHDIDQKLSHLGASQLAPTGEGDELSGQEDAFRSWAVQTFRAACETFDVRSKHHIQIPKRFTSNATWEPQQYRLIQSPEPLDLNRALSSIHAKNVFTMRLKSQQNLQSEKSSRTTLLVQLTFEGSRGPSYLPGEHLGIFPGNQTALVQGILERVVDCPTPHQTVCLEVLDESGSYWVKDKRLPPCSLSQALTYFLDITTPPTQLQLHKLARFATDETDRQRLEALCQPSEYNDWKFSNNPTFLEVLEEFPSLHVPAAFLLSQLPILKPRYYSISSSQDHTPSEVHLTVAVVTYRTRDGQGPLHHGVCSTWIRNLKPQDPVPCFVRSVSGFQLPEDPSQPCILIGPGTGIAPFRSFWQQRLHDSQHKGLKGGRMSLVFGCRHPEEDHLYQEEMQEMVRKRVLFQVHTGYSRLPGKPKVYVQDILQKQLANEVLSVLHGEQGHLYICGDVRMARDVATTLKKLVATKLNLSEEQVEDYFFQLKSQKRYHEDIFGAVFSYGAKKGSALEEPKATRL

Caspase-1 = biological target: T4, Caspase-1 (Homo sapiens, UniProt P29466); parameters: species or system Escherichia coli;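 further: Caspase-1 enzyme inhibition assay with a peptide substrate; in other assays of this panel Not Active means under 50% inhibition at 10 µM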
T4 sequence (P29466 whole entry): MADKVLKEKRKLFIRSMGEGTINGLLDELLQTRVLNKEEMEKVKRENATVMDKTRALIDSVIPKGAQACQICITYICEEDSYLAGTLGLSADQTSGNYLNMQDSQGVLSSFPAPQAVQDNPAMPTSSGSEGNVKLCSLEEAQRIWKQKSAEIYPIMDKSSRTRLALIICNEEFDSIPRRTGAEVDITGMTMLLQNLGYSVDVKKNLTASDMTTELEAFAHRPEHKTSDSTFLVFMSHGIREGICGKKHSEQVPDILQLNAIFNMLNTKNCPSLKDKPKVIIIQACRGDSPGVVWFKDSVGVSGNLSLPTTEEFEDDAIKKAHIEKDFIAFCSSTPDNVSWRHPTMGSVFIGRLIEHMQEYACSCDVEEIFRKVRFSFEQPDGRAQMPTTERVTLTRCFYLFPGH

[3] = biological target: Voltage-gated inwardly rectifying potassium channel KCNH2 (Homo sapiens, UniProt Q12809); settings: hek293; further: in other assays of this panel Not Active means under 50% inhibition at 10 µM
Chain of Voltage-gated inwardly rectifying potassium channel KCNH2 (Q12809 whole entry): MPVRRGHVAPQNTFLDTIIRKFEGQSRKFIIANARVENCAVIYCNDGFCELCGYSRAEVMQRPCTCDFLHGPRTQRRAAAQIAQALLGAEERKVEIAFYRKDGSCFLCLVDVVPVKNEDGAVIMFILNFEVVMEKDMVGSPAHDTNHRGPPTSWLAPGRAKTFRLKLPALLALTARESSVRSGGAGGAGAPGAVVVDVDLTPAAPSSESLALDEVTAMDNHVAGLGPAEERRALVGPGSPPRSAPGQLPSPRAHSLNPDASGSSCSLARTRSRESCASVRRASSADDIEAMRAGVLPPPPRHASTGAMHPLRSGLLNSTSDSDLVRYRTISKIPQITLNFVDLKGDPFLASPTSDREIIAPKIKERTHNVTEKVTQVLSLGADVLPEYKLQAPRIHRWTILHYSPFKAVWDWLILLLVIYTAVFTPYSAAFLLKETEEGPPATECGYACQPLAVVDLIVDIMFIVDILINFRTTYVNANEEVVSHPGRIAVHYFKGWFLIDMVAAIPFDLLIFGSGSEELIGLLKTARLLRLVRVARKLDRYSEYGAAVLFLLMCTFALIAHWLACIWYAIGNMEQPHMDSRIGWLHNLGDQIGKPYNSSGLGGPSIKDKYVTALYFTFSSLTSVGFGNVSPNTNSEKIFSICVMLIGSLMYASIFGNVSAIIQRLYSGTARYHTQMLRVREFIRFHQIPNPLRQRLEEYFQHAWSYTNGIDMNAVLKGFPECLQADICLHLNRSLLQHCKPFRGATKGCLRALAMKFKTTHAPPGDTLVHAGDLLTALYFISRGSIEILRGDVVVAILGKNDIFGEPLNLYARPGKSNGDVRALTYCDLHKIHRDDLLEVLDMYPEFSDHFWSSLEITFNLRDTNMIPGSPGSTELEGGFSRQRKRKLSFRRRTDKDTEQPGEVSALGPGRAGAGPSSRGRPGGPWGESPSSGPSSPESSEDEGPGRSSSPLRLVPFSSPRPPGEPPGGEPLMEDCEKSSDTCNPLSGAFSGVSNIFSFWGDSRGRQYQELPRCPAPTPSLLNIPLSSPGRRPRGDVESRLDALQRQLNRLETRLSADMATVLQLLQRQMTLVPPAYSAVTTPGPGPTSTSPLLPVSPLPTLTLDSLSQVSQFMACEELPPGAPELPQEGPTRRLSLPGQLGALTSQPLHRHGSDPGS

Melanocortin receptor 3 = Melanocortin receptor 3 (Homo sapiens, UniProt P41968); assay type: cell membranes, HEK293, Membrane; settings: hek293; further: in other assays of this panel Not Active means under 50% inhibition at 10 µM
Chain of Melanocortin receptor 3 (P41968 whole entry): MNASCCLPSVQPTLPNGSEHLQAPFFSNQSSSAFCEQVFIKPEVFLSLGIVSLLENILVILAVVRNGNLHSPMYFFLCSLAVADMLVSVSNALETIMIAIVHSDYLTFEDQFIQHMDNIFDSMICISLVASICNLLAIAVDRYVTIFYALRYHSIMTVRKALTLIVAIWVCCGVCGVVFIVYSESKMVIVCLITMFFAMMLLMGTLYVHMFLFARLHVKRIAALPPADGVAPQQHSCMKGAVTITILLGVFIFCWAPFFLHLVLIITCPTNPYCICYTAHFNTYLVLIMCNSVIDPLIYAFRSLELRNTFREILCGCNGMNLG

Chain of Sodium-dependent noradrenaline transporter (P23975 whole entry): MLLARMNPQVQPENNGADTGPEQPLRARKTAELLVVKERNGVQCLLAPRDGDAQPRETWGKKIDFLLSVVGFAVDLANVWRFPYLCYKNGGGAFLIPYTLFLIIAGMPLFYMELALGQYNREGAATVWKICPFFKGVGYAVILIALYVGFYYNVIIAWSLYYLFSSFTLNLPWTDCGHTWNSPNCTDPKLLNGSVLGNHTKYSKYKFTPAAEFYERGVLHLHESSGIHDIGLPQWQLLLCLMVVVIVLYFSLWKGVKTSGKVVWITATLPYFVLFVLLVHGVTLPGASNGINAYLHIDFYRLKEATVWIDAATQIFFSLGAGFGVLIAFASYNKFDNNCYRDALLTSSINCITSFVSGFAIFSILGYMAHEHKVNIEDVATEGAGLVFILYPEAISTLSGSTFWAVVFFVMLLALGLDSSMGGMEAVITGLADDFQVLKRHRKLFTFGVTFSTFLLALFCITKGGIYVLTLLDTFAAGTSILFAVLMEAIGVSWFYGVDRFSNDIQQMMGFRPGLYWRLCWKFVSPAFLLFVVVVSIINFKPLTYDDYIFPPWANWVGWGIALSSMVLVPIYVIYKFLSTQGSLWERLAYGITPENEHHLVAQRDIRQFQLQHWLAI

Compound	IC50 ([1]; mdck)	IC50 (Cytochrome P450 2C9)	Ki (Cytochrome P450 2C9)	IC50 (Adenosine receptor A3; cho-k1)	IC50 (D(4) dopamine receptor)	IC50 [2]	IC50 (Caspase-1)	IC50 [3]	Ki [3]	IC50 (Melanocortin receptor 3)	IC50 ([1]; read-out: IC50) [µM]	Ki ([1]; read-out: Ki) [µM]	Ki ([1]; mdck)	Ki (Adenosine receptor A3; cho-k1)	Ki (D(4) dopamine receptor)	Ki [2]	Ki (Caspase-1)	Ki (Melanocortin receptor 3)	IC50 (Adenosine receptor A3; read-out: IC50) [µM]	Ki (Adenosine receptor A3; read-out: Ki) [µM]
Oc1ccccc1 [PHENOL]	Not Active	Not Active	Not Active	Not Active	Not Active	Not Active	Not Active	Not Active	Not Active	Not Active	–	–	–	–	–	–	–	–	–	–
CCCCCCNC(=O)n1cc(F)c(=O)[nH]c1=O [CARMOFUR]	Not Active	Not Active	Not Active	Not Active	Not Active	Not Active	Not Active	Not Active	Not Active	Not Active	–	–	–	–	–	–	–	–	–	–
Nc1ccc(C(=O)O)c(O)c1 [AMINOSALICYLIC ACID]	Not Active	Not Active	Not Active	Not Active	Not Active	Not Active	Not Active	Not Active	Not Active	Not Active	–	–	–	–	–	–	–	–	–	–
COc1cc(NC(C)CCCN)c2ncccc2c1 (stereo not given) [PRIMAQUINE]	Not Active	Not Active	Not Active	Not Active	Not Active	Not Active	Not Active	Not Active	Not Active	Not Active	–	–	–	–	–	–	–	–	–	–
Cc1cc(C(C)(C)C)c(O)c(C)c1CC1=NCCN1 [OXYMETAZOLINE]	Not Active	Not Active	Not Active	Not Active	Not Active	Not Active	Not Active	Not Active	Not Active	Not Active	–	–	–	–	–	–	–	–	–	–
O=c1[nH]cnc2c1ncn2[C@H]1CC[C@@H](CO)O1 [DIDANOSINE]	Not Active	Not Active	Not Active	Not Active	Not Active	Not Active	Not Active	Not Active	Not Active	Not Active	–	–	–	–	–	–	–	–	–	–
CC(=O)[C@]1(O)Cc2c(O)c3c(c(O)c2[C@@H](O[C@H]2C[C@H](N)[C@H](O)[C@H](C)O2)C1)C(=O)c1ccccc1C3=O [IDARUBICIN]	Not Active	Not Active	Not Active	Not Active	Not Active	Not Active	Not Active	Not Active	Not Active	Not Active	–	–	–	–	–	–	–	–	–	–
COC(=O)Nc1nc2ccc(Sc3ccccc3)cc2[nH]1 [FENBENDAZOLE]	Not Active	Not Active	Not Active	Not Active	Not Active	Not Active	Not Active	Not Active	Not Active	Not Active	–	–	–	–	–	–	–	–	–	–
CC(C)(c1ccc(O)cc1)c1ccc(O)cc1 [BISPHENOL A]	–	Not Active	Not Active	Not Active	Not Active	Not Active	Not Active	Not Active	Not Active	Not Active	16.6	16.5	–	–	–	–	–	–	–	–
C=C(Cl)Cl [1,1-DICHLOROETHENE]	Not Active	Not Active	Not Active	Not Active	Not Active	Not Active	Not Active	Not Active	Not Active	Not Active	–	–	–	–	–	–	–	–	–	–
O=C(O)CCc1nc(-c2ccccc2)c(-c2ccccc2)o1 [OXAPROZIN]	Not Active	Not Active	Not Active	Not Active	Not Active	Not Active	Not Active	Not Active	Not Active	Not Active	–	–	–	–	–	–	–	–	–	–
NCC(CC(=O)O)c1ccc(Cl)cc1 (stereo not given) [BACLOFEN]	Not Active	Not Active	Not Active	Not Active	Not Active	Not Active	Not Active	Not Active	Not Active	Not Active	–	–	–	–	–	–	–	–	–	–
C=CCO [ALLYL ALCOHOL]	Not Active	Not Active	Not Active	Not Active	Not Active	Not Active	Not Active	Not Active	Not Active	Not Active	–	–	–	–	–	–	–	–	–	–
COC(=O)C[C@](O)(CCC(C)(C)O)C(=O)O[C@@H]1C(OC)=C[C@]23CCCN2CCc2cc4c(cc2[C@H]13)OCO4 [HARRINGTONINE]	Not Active	Not Active	Not Active	Not Active	Not Active	Not Active	Not Active	Not Active	Not Active	Not Active	–	–	–	–	–	–	–	–	–	–
CHROMIC CHLORIDE	Not Active	Not Active	Not Active	Not Active	Not Active	Not Active	Not Active	Not Active	Not Active	Not Active	–	–	Not Active	Not Active	Not Active	Not Active	Not Active	Not Active	–	–
O=C1CN(/N=C/c2ccc([N+](=O)[O-])o2)C(=O)N1 [NITROFURANTOIN]	Not Active	Not Active	Not Active	Not Active	Not Active	Not Active	Not Active	Not Active	Not Active	Not Active	–	–	–	–	–	–	–	–	–	–
c1ccc2c(c1)Nc1ccccc1S2 [PHENOTHIAZINE]	–	Not Active	Not Active	–	Not Active	Not Active	Not Active	Not Active	Not Active	Not Active	0.461	0.457	–	–	–	–	–	–	25.6	14.5
CC(CN1c2ccccc2Sc2ccccc21)N(C)C (stereo not given) [PROMETHAZINE]	–	Not Active	Not Active	Not Active	Not Active	Not Active	Not Active	Not Active	Not Active	Not Active	4.24	4.2	–	–	–	–	–	–	–	–
